The nature of data set [1]: in vivo. Conditions: rat, in vivo. The protocol: (§1) Acute toxicity test was conducted on rats aged four weeks to which 5-(3-ethoxy-4-pentyloxyphenyl)-2,4-thiazolidinedione was administered.
The subject of data set [2] is Rat. Description: in vivo. Here is the method:
as §1

The test system of data set [3] is mice and rats. Description: Acute toxicity test, symptoms and findings common to mice and rats. The class given is in vivo. Conditions: for life period in the death cases: both animals. The protocol: as §1
The following symptoms in common with the mice and rats were observed.

Data set [4] in a line: Acute toxicity test, mouse. It is filed as in vivo. The following applies: mouse, in vivo.
Data set [5] concerns Mouse. Description: Acute toxicity test, mouse. The class given is in vivo. Conditions: mice.
Setting [6] is: ip, intraperitoneal injection, female.
[7] abbreviates: ip, intraperitoneal injection, male.
Setting [8] is: po, oral administration, female.
[9] abbreviates: sc, subcutaneous injection, female.
The mark [10] stands for this setting: sc, subcutaneous injection, male.

The LD50 is the dose expected to kill half of the subjects tested.

Consider `CCCCCOc1ccc(C2SC(=O)NC2=O)cc1OCC` (centres unmarked) [5-(3-ethoxy-4-pentyloxyphenyl)-2,4-thiazolidinedione], for which the LD50 in data set [1] (setting [6]) was 520 mg/kg; in data set [1] (setting [7]), 490 mg/kg; in data set [1] (setting [8]) it was 4330 mg/kg; in data set [1] (po, oral administration, male), 5300 mg/kg; in data set [1] (setting [9]), 3300 mg/kg; in data set [1] (setting [10]), 3210 mg/kg. In addition, the LD50 came out at 500 mg/kg in data set [4] (setting [6]); 560 mg/kg in data set [4] (setting [7]); 2150 mg/kg in data set [4] (setting [8]); 2320 mg/kg in data set [4] (po, oral administration, male); 2270 mg/kg in data set [4] (setting [9]); 1720 mg/kg in data set [4] (setting [10]). Also, the Observation on dissection result in data set [2] (rat, in vivo, po) is “atrophy of the thymus gland was further seen”. For the same compound, in data set [2] (rats, subcutaneous administration, injection area), the “Observation on dissection, survival cases” value was “formed with a cyst of hen's egg size in the injection area, and the cyst was found to contain an extremely small amount of unabsorbed medicament and a small amount of extravasation liquid”. The General symptoms in data set [3] (in vivo, sc) is 3 or 5 hours after the administration, a slight suppression of spontaneous motility was found, and then, lowering in tonus of the abdominal muscle, walking disorder, lacrimation and respiratory depression were observed. The “life period in the death cases” value was 2 to 24 h in data set [3] (intraperitoneal administration); 2 to 24 h in data set [3] (oral administration, major cases); 48 to 96 h in data set [3] (oral administration, minor cases); “from the night of the administration day to three days after the administration” in data set [3] (subcutaneous administration). The “Observation on dissection, death cases” value in data set [3] (mice and rats) is “congestion of the lung was observed in both mice and rats”. Further, the “General symptoms, additional in mice” value is “projection of the eyeball, a secretion in the margin of palpebra, fall of the body surface temperature and a slight degree of tremor in a few cases were seen” in data set [5] (intraperitoneal injection); “lacrimation, a secretion in the margin of palpebra and fall of the body surface temperature were additionally observed” in data set [5] (oral administration); “projection of the eyeball, a secretion in the margin of palpebra and fall of the body surface temperature were additionally seen” in data set [5] (subcutaneous injection, next day after administration).
